Laboratory results published in PubChem BioAssay (NCI).
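Interpolation was linear, between the two tested concentrations surrounding the appropriate level; five concentrations were tested over 48 hours in 96-well plates. TGI: concentration producing complete growth inhibition.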

Assays:
Assay in all cases: growth of human tumour cells (NCI), 48 h
[1] = system: 786-0 renal
[2] = system: A498 renal
[3] = system: A549 NSCLC
[4] = system: ACHN renal
[5] = system: CCRF-CEM leukemia
[6] = system: COLO 205 colon
[7] = system: DLD-1 colon
[8] = system: DMS 114 small cell lung
[9] = system: EKVX NSCLC
[10] = system: HCC-2998 colon
[11] = system: HCT-116 colon
[12] = system: HCT-15 colon
[13] = system: HL-60(TB) leukemia
[14] = system: HOP-18 NSCLC
[15] = system: HOP-62 NSCLC
[16] = system: HOP-92 NSCLC
[17] = system: HT29 colon
[18] = system: IGROV1 ovarian
[19] = system: KM12 colon
[20] = system: KM20L2 colon
[21] = system: LOX IMVI melanoma
[22] = system: LXFL 529 NSCLC
[23] = system: M14 melanoma
[24] = system: M19-MEL melanoma
[25] = system: MALME-3M melanoma
[26] = system: NCI-H226 lung
[27] = system: NCI-H23 lung
[28] = system: NCI-H460 lung
[29] = system: NCI-H522 lung
[30] = system: OVCAR-3 ovarian
[31] = system: OVCAR-4 ovarian
[32] = system: OVCAR-5 ovarian
[33] = system: OVCAR-8 ovarian
[34] = system: RXF 393 renal
[35] = system: SF-268 CNS
[36] = system: SF-295 CNS
[37] = system: SF-539 CNS
[38] = system: SK-MEL-2 melanoma
[39] = system: SK-MEL-28 melanoma
[40] = system: SK-MEL-5 melanoma
[41] = system: SK-OV-3 ovarian
[42] = system: SN12C renal
[43] = system: SNB-19 CNS
[44] = system: SNB-75 CNS
[45] = system: SNB-78 CNS
[46] = system: SW-620 colon
[47] = system: TK-10 renal
[48] = system: U251 CNS
[49] = system: UACC-257 melanoma
[50] = system: UACC-62 melanoma
[51] = system: UO-31 renal
[52] = system: XF 498 CNS
[53] = system: CAKI-1 renal
[54] = system: DMS 273 small cell lung
[55] = system: K-562 leukemia
[56] = system: MOLT-4 leukemia
[57] = system: RPMI-8226 leukemia
[58] = system: SR leukemia

CCCCCCCCCCCCCS(=O)(=O)NCC(N)=O
TGI [1]: > 100 µM
TGI [2]: > 100 µM
TGI [3]: > 100 µM
TGI [4]: > 100 µM
TGI [5]: > 100 µM
TGI [6]: > 100 µM
TGI [7]: > 100 µM
TGI [8]: > 100 µM
TGI [9]: > 100 µM
TGI [10]: > 100 µM
TGI [11]: > 100 µM
TGI [12]: > 100 µM
TGI [13]: > 100 µM
TGI [14]: > 100 µM
TGI [15]: > 100 µM
TGI [16]: > 100 µM
TGI [17]: > 100 µM
TGI [18]: > 100 µM
TGI [19]: > 100 µM
TGI [20]: > 100 µM
TGI [21]: > 100 µM
TGI [22]: > 100 µM
TGI [23]: > 100 µM
TGI [24]: > 100 µM
TGI [25]: > 100 µM
TGI [26]: > 100 µM
TGI [27]: > 100 µM
TGI [28]: > 100 µM
TGI [29]: > 100 µM
TGI [30]: > 100 µM
TGI [31]: > 100 µM
TGI [32]: > 100 µM
TGI [33]: > 100 µM
TGI [34]: > 100 µM
TGI [35]: > 100 µM
TGI [36]: > 100 µM
TGI [37]: > 100 µM
TGI [38]: > 100 µM
TGI [39]: > 100 µM
TGI [40]: > 100 µM
TGI [41]: > 100 µM
TGI [42]: > 100 µM
TGI [43]: > 100 µM
TGI [44]: 74.7 µM
TGI [45]: > 100 µM
TGI [46]: > 100 µM
TGI [47]: > 100 µM
TGI [48]: > 100 µM
TGI [49]: > 100 µM
TGI [50]: > 100 µM
TGI [51]: > 100 µM
TGI [52]: > 100 µM

COC(=O)[C@@]12C3=NO[C@]1(C(=O)OC)C(O[Si](C)(C)C(C)(C)C)[C@@H](OC(C)=O)[C@@H](OC(C)=O)[C@@H]2[C@@H](OCc1ccccc1)CC3 (some centres not stated)
TGI [1]: > 100 µM
TGI [2]: > 100 µM
TGI [3]: > 100 µM
TGI [4]: > 100 µM
TGI [53]: > 100 µM
TGI [5]: > 100 µM
TGI [6]: > 100 µM
TGI [7]: > 100 µM
TGI [8]: > 100 µM
TGI [54]: > 100 µM
TGI [9]: > 100 µM
TGI [10]: > 100 µM
TGI [11]: > 100 µM
TGI [12]: > 100 µM
TGI [13]: > 100 µM
TGI [14]: > 100 µM
TGI [15]: > 100 µM
TGI [16]: > 26.1 µM
TGI [17]: > 100 µM
TGI [18]: > 100 µM
TGI [55]: > 100 µM
TGI [19]: > 100 µM
TGI [20]: > 100 µM
TGI [21]: > 100 µM
TGI [22]: > 100 µM
TGI [23]: > 100 µM
TGI [24]: > 100 µM
TGI [25]: > 100 µM
TGI [56]: > 100 µM
TGI [26]: > 100 µM
TGI [27]: > 100 µM
TGI [28]: > 100 µM
TGI [29]: > 100 µM
TGI [30]: > 100 µM
TGI [31]: > 100 µM
TGI [32]: > 100 µM
TGI [33]: > 100 µM
TGI [57]: > 100 µM
TGI [34]: 89.6 µM
TGI [35]: > 100 µM
TGI [36]: > 100 µM
TGI [37]: > 100 µM
TGI [38]: > 100 µM
TGI [39]: > 100 µM
TGI [40]: > 100 µM
TGI [41]: > 100 µM
TGI [42]: > 100 µM
TGI [43]: > 100 µM
TGI [44]: > 73.7 µM
TGI [45]: > 100 µM
TGI [46]: > 100 µM
TGI [47]: > 100 µM
TGI [48]: > 100 µM
TGI [49]: > 100 µM
TGI [50]: > 100 µM
TGI [51]: > 100 µM
TGI [52]: > 100 µM

COc1cc(O)c(C(=O)/C=C/c2ccc(OC)c(OCc3ccccc3)c2)c(OC)c1
TGI [1]: > 100 µM
TGI [3]: > 100 µM
TGI [4]: > 100 µM
TGI [53]: > 100 µM
TGI [5]: > 100 µM
TGI [6]: 2.09 µM
TGI [7]: > 100 µM
TGI [54]: 1.76 µM
TGI [9]: > 100 µM
TGI [10]: > 100 µM
TGI [11]: > 100 µM
TGI [12]: > 100 µM
TGI [13]: > 100 µM
TGI [14]: > 100 µM
TGI [15]: > 100 µM
TGI [16]: > 100 µM
TGI [17]: > 100 µM
TGI [18]: > 100 µM
TGI [55]: > 100 µM
TGI [19]: > 100 µM
TGI [20]: > 100 µM
TGI [21]: > 100 µM
TGI [22]: > 100 µM
TGI [23]: > 100 µM
TGI [24]: > 100 µM
TGI [56]: > 100 µM
TGI [26]: > 100 µM
TGI [27]: > 100 µM
TGI [28]: > 100 µM
TGI [29]: > 100 µM
TGI [30]: > 100 µM
TGI [31]: > 100 µM
TGI [32]: > 100 µM
TGI [33]: > 100 µM
TGI [57]: > 100 µM
TGI [34]: > 100 µM
TGI [36]: 2.43 µM
TGI [37]: > 100 µM
TGI [38]: > 100 µM
TGI [40]: > 100 µM
TGI [41]: > 100 µM
TGI [42]: > 100 µM
TGI [43]: > 100 µM
TGI [44]: > 100 µM
TGI [45]: 6.52 µM
TGI [58]: > 100 µM
TGI [46]: > 100 µM
TGI [47]: > 100 µM
TGI [48]: > 100 µM
TGI [49]: > 100 µM
TGI [50]: 7.33 µM
TGI [51]: > 100 µM
TGI [52]: > 100 µM

NC(=O)/N=C/c1c(O)c2ccccc2oc1=O
TGI [4]: > 100 µM
TGI [5]: > 100 µM
TGI [6]: > 100 µM
TGI [7]: > 100 µM
TGI [8]: > 100 µM
TGI [54]: > 100 µM
TGI [9]: > 100 µM
TGI [10]: > 100 µM
TGI [11]: > 100 µM
TGI [12]: > 100 µM
TGI [13]: > 100 µM
TGI [15]: > 100 µM
TGI [16]: > 100 µM
TGI [17]: > 100 µM
TGI [18]: > 100 µM
TGI [55]: > 100 µM
TGI [19]: > 100 µM
TGI [20]: > 100 µM
TGI [21]: > 100 µM
TGI [22]: > 100 µM
TGI [23]: > 100 µM
TGI [56]: > 100 µM
TGI [26]: > 100 µM
TGI [27]: > 100 µM
TGI [28]: > 100 µM
TGI [30]: > 100 µM
TGI [31]: > 100 µM
TGI [32]: > 100 µM
TGI [33]: > 100 µM
TGI [57]: > 100 µM
TGI [34]: 82.4 µM
TGI [35]: > 100 µM
TGI [36]: > 100 µM
TGI [37]: > 100 µM
TGI [38]: > 100 µM
TGI [39]: > 100 µM
TGI [40]: > 100 µM
TGI [42]: > 100 µM
TGI [43]: > 100 µM
TGI [45]: > 100 µM
TGI [46]: > 100 µM
TGI [47]: > 100 µM
TGI [49]: > 100 µM
TGI [50]: > 100 µM
TGI [51]: > 100 µM
